What was measured:
[1] = Zeta-potential analysis by dynamic light scattering (Zetasizer Nano-ZS); type: physicochemical; conditions: dispersed in distilled water, triplicate, several peaks printed with their share (%)
Method: To analyze the binding characteristics in the complexes of Examples 1 and 2, particle size analysis and zeta-potential analysis were performed. Chondroitin sulfate (CS), arginine (R), and glutamine (Q), a simple mixture of chondroitin sulfate and arginine or glutamine (CS/R or CS/Q mixture), and a complex of chondroitin sulfate and arginine or glutamine (CS-R or CS-Q complex) were analyzed by dynamic light scattering using a Zetasizer Nano-ZS (Malvern Instruments, Worcester, UK) to measure the particle size (effective dynamic diameter), particle size distribution and zeta potential of the samples dispersed on a colloid. Samples for the measurements were prepared by being dispersed in distilled water, and an automatic temperature-controlled cell with a scattering angle of 90° and software provided by the manufacturer were used. After measurement was conducted in triplicate for each sample, a zeta-potential value was calculated, and the results are shown in the following Table 1.

[2] = system: type I collagen (procollagen type 1-C propeptide, PICP) in human fibroblasts; test: Collagen synthesis effect in vitro (PICP EIA); type: cell-based; conditions: 48 hours, concentrations of Table 2, (sample − negative control) ÷ negative control × 100
Source text: (§1) For the evaluation of in vitro skin improvement efficacy, chondroitin sulfate (CS), glutamine (Q), arginine (R), Examples 1 and 2 (CS-R complex and CS-Q complex), and Comparative Examples 1 and 2 (CS/R mixture and CS/Q mixture) were used as culture solutions, and were ultimately included at the concentrations shown in the following Table 2 in each evaluation.
To compare the wrinkle amelioration effects of chondroitin sulfate (CS), arginine (R), and glutamine (Q), a simple mixture of chondroitin sulfate and an amino acid (CS/AA mixture), and a chondroitin sulfate-amino acid complex (CS-AA complex), the effect of promoting the synthesis of type I collagen was confirmed using skin fibroblasts. For the evaluation, procollagen type 1-C propeptide (PICP), which is typically synthesized in the highest amount in fibroblasts, was quantified.
Specifically, human fibroblasts were aliquoted at 1×10^5 cells/well in a 48-well culture plate and cultured in a Dulbecco's Modified Eagle's Medium (DMEM, Gibco) medium containing 10% fetal bovine serum (FBS) for 24 hours. Subsequently, the medium was replaced with a serum-free DMEM medium containing 2 wt % of each culture solution according to Table 2 to treat cells with an analyte for 48 hours. Next, 20 μl of the culture supernatant was taken to measure the degree of collagen increase at each concentration at 450 nm using a Procollagen Type-1-C-peptide Enzyme Immuno Assay (PICP EIA) kit.

human fibroblasts = test: Cell activity effect in vitro (CCK-8); type: cell-based; conditions: 48 hours, CCK-8, concentrations of Table 2, (sample − negative control) ÷ negative control × 100, in %
Source text: as §1
To compare the effects of chondroitin sulfate (CS), arginine (R), and glutamine (Q), a simple mixture of chondroitin sulfate and an amino acid (CS/AA mixture), and a chondroitin sulfate-amino acid complex (CS-AA complex) on skin cell activity, human fibroblast culture was used to confirm whether cell activity was increased.
Specifically, human fibroblasts were aliquoted at 5×10^3 cells/well and cultured in a DMEM medium containing 10% FBS for 24 hours. Subsequently, the culture medium was removed, and the cells were treated with each sample at a predetermined concentration according to Table 2 for 48 hours. Then, a reagent provided in a CCK-8 kit (DOJINDO, Cell Counting Kit-8, catalog No. CK04) was added, the resulting mixture was incubated for 4 hours, and then absorbance was measured at 450 nm using an ELISA reader.

[3] = system: hyaluronic acid production in human dermal fibroblasts; test: Hyaluronic acid synthesis effect in vitro (Hyaluronan ELISA); type: cell-based; conditions: 24 hours, concentrations of Table 2, (sample − negative control) ÷ negative control × 100
Source text: as §1
To compare the skin moisturizing effects of chondroitin sulfate (CS), arginine (R), and glutamine (Q), a simple mixture of chondroitin sulfate and an amino acid (CS/AA mixture), and a chondroitin sulfate-amino acid complex (CS-AA complex), human dermal fibroblasts were used to confirm whether the production of hyaluronic acid was increased.
Specifically, fibroblasts were cultured in a DMEM medium containing 10% FBS until the cells occupied 80% of the culture dish. Subsequently, the cells were treated with each sample at a predetermined concentration according to Table 2 for 24 hours, and then the concentration of hyaluronic acid was measured using a Hyaluronan ELISA kit (R&D systems, catalog No. DY3614-05).

[4] = system: Raw 264.7 cells (NO production); test: Suppression of NO production in LPS-treated macrophages (Griess); type: cell-based, mouse; conditions: Raw264.7 cells, sample 30 minutes then 500 ng/ml LPS 18 hours, concentrations of Table 2
Source text: as §1
To compare the skin soothing effects of chondroitin sulfate (CS), arginine (R), and glutamine (Q), a simple mixture of chondroitin sulfate and an amino acid (CS/AA mixture), and a chondroitin sulfate-amino acid complex (CS-AA complex), mouse macrophage cell line Raw 264.7 cells (ATCC, catalog No. CRL-2788) was used to confirm whether the production of NO was suppressed.
Specifically, Raw264.7 cells were aliquoted at 1 to 2×10^5 cells/ml in a 24-well tissue culture plate and cultured in a DMEM medium containing 10% FBS for 24 hours. The culture was carried out in a 5% CO2 incubator. Subsequently, the medium was replaced with a serum-free medium, and the cells were starved for 12 hours, and then treated with each sample at a predetermined concentration according to Table 2 for 30 minutes. After the sample treatment was completed, the cells were treated with 500 ng/ml lipopolysaccharides (LPS, SIGMA, catalog No. L43901) and then cultured for an additional 18 hours. Next, the culture supernatant was taken, transferred to a 96-well tissue culture plate and reacted with GREISS reagent (SIGMA, catalog No. G4410) at room temperature for 15 minutes, and then absorbance was measured at 540 nm using an ELISA reader. Thereafter, NO was quantified using the measured absorbance, and the reduction rate of NO produced in the experimental group compared to the positive control treated with 20 μg/ml of L-NMMA was calculated as (the value of the positive control−the value of the sample treatment group)÷the value of the negative control×100, which was used as a NO production suppression ability.

[5] = system: Zonula Occludens-1 (ZO-1) in HaCaT cells; test: mRNA expression of tight junction protein ZO-1 (real-time PCR); type: cell-based, human; conditions: 24 hours, concentrations of Table 2, (sample − negative control) ÷ negative control × 100
Source text: as §1
To compare the skin barrier recovery effects of chondroitin sulfate (CS), glutamine (Q), a simple mixture of chondroitin sulfate and glutamine (CS/Q mixture), and a chondroitin sulfate-glutamine complex (CS-Q complex), it was confirmed whether the expression of Zonula Occludens-1 (ZO-1), one of the proteins that make up the tight junctions at the intercellular junctions in the skin barrier, was increased.
Specifically, human keratinocyte cell line HaCaT cells were first cultured at 37° C. in a 5% CO2 environment in a DMEM medium (Gibco, Waltham, MA, USA) supplemented with 10% fetal bovine serum (FBS, Gibco, Waltham, MA, USA), […] penicillin, and […] streptomycin. […] The concentration of the extracted RNA was quantified, and 1 μg of RNA was reacted with a cDNA synthesis kit (ET21100, PhileKorea Technology) at 42° C. for 30 minutes and 72° C. for 10 minutes to synthesize cDNA. […]

[6] = system: Staphylococcus epidermidis; test: Growth rate of beneficial skin bacterium (optical density); type: cell-based; conditions: TSB medium, 30 to 37° C., 6 to 18 hours, concentrations of Table 2; relative to negative control
Method: To evaluate the prebiotic ability of Example 2, the degrees of enhancement in beneficial bacteria among the skin resident flora were compared before and after the CS or Example 2 treatment. Staphylococcus epidermidis was selected as a representative beneficial bacterium, and the growth rates of the beneficial bacterium were compared before and after treatment with the materials.
The growth rate of the beneficial bacterium was evaluated by the following method. A sterile liquid medium was prepared using a commercial tryptic soy broth (TSB, DFICO) medium, and a glycerol stock of S. epidermidis was inoculated into the sterile liquid TSB medium and pre-cultured at 30 to 37° C. for 6 to 18 hours. Such a pre-culture was performed once to twice. Thereafter, chondroitin sulfate (CS) and Example 2 were added to a sterile liquid TSB medium at each predetermined concentration according to Table 2, and the preculture solution was inoculated to culture cells at 30 to 37° C. for 6 to 18 hours.
After culture, the optical density (OD) immediately after inoculation and the optical density during the stationary phase of growth were measured, and the ratio of these values (growth rate) was compared. […] After the evaluation was carried out three times, the average growth rate, the standard deviation, and the like were calculated, and then the significance was verified by a t-test.

| Compound | Zeta potential (mV) [1] | Collagen type 1 synthesis ability [2] | Cell activity ability (human fibroblasts) | Hyaluronic acid synthesis ability [3] | NO production suppression ability [4] | ZO-1 expression ability [5] | S. epidermidis growth rate (%) [6] |
| --- | --- | --- | --- | --- | --- | --- | --- |
| N=C(N)NCCC[C@H](N)C(=O)O [Arginine (R), arginine] | −4 mV | −12.58 | −12.79 | −2.1 | 30.3 | – | – |
| NC(=O)CC[C@H](N)C(=O)O [Glutamine (Q), glutamine] | – | 2.78 | −11.66 | 2.8 | 20.4 | 11.0 | – |
| CC1=C(/C=C/C(C)=C/C=C/C(C)=C/C(=O)O)C(C)(C)CCC1 [Retinoic acid] | – | – | – | 16.8 | – | – | – |
| TGF-b | – | 21.15 | – | – | – | – | – |
| chondroitin sulfate [Chondroitin sulfate (CS)] | −18 mV | 3.55 | 8.74 | 1.8 | 25.6 | 25.0 | 6.081% |
